Experimental data reported in patent US11532406B2, “High specific activity preparation of F-18 tetrafluoroborate” (Mayo Foundation for Medical Education and Research, priority 2016, dated 2022).
Values joined by “and” are separate entries in the source; they are usually repeats but may differ in a detail not shown here. Equal values may be shown once. Marks after values point to notes of the source that are not given here.

Legend:
[1] = Radiation dosimetry estimation (organ residence times, OLINDA); assay type: in vivo, human; settings: males
Procedure: Radiation dosimetry estimates were calculated from organ residence times using OLINDA software (Ver. 1.1), assuming a bladder voiding interval of 3.5 h. Gender-specific organ masses for the conversion of SUV to disintegrations per organ per unit radioactivity administered (Bq-hr/Bq) were taken from Schlein et al. (15).
Bladder residence time was estimated by the bladder emptying model within the OLINDA software, assuming a 3.5 h bladder voiding period. The dose-critical organ is thyroid, with dose estimates of 0.26 and 0.36 mSv/MBq in males and females, respectively. […] Effective dose was higher in females (0.065 mSv/MBq) relative to males (0.036 mSv/MBq).

[2] = test system: hNIS-expressing C6 glioma xenograft; test: Dynamic PET imaging in hNIS-expressing C6 glioma xenografted athymic mice; assay type: in vivo
Procedure: Studies with mice were performed under approval of the Mayo Clinic Institutional Animal Care and Use Committee. Dynamic PET imaging was performed in hNIS-expressing C6 glioma xenografted athymic mice following retro-orbital injection ˜1.1 MBq Na ^18F-TFB at different specific activities (10-0.001 mg TFB/Kg mouse) to assess hNIS activity with ^18F-TFB. In this xenograft model, one flank has hNIS-negative C6 glioma tumor xenograft and the other flank had hNIS-expressing C6 glioma xenograft.
PET scans were acquired for 60 min followed by an X-ray scan using the GENISYS4 PET imaging system (Sofie Biosciences, CA). The images from 40 hNIS-expressing C6 glioma xenografted mice were analyzed for Standardized Uptake Value (SUV) in tumor, stomach, and thyroid using AMIDE image processing software (20). The SUV in tumor was normalized with SUV in stomach to account for difference in ^18F-TFB bioavailability in different animals due to competing uptake in normal organs like thyroid, salivary glands and stomach.

[3] = Measurements in venous blood and urine samples, HPLC metabolite analysis; assay type: in vivo, human; settings: all urine samples, approximately 50, 160, 250 min
[4] = as above; assay type: in vivo, human; settings: for Urine (% Dose), Accumulative: end of study (~250 min)
Procedure: Urine was collected after each PET/CT scan (approximately 55, 160, 250 min), and venous blood samples were collected at 40, 145 and 235 min, post-injection, as shown in FIG. 13. Blood samples (3-4 mL) were collected in heparinized tubes and placed on ice. The blood samples were centrifuged at 3000 g for 5 min to obtain plasma. Urine was measured for urine volume and radioactivity concentration as measured in a calibrated gamma counter. Analysis for metabolites in plasma and urine was performed by ion-chromatography HPLC, allowing estimation of the fraction of radioactivity as nonmetabolized ^18F-TFB.

[5] = C6-glioma xenograft mouse model, PET

What does the source list for `F[B-](F)(F)[18F]` [^18F-TFB, ^18F-tetrafluoroborate]?
Estimated absorbed radiation dose, Stomach Wall [1]: 0.076 mSv/MBq; Estimated absorbed radiation dose, Testes [1]: 0.005 mSv/MBq; Estimated absorbed radiation dose, Thymus [1]: 0.004 mSv/MBq; Estimated absorbed radiation dose, Thyroid [1]: 0.26 mSv/MBq; Estimated absorbed radiation dose, Total Body [1]: 0.008 mSv/MBq; Estimated absorbed radiation dose, Upper Large Intestine Wall [1]: 0.045 mSv/MBq; Residence Time, Bone [1]: 4.6 ± 1.3 min; Residence Time, Brain [1]: 1.2 ± 0.4 min; Residence Time, Gallbladder [1]: 0.06 ± 0.03 min; Residence Time, Intestines [1]: 5.7 ± 1.9 min; Residence Time, Kidney [1]: 4.2 ± 1.2 min; Residence Time, Liver [1]: 8.3 ± 3.9 min; Residence Time, Lung [1]: 2.1 ± 0.7 min; Residence Time, Muscle [1]: 36 ± 14 min; Residence Time, Myocardium [1]: 2.1 ± 0.6 min; Residence Time, Pancreas [1]: 0.7 ± 0.3 min; Residence Time, Parotid [1]: 1.7 ± 1.1 min; Residence Time, Spleen [1]: 1.5 ± 0.4 min; Residence Time, Stomach [1]: 11 ± 5 min; Residence Time, Thyroid [1]: 2.0 ± 0.7 min; Residence Time, Bladder ([1]; bladder emptying model, 3.5 h voiding period): 17 ± 2 min; Estimated absorbed radiation dose, Urinary Bladder Wall ([1]; bladder voiding interval of 3.5 h): 0.14 mSv/MBq; uptake by hNIS-expressing tumor versus specific activity ([2]; >13 MBq/μmol compared to 3 MBq/μmol): higher at high specific activity; uptake in hNIS-negative tumors [2, 5]: No uptake; uptake in thyroid, stomach, bladder and hNIS-expressing tumors [2, 5]: Robust uptake; stomach uptake versus specific activity ([2]; mouse, in vivo): independent of specific activity; stomach uptake over 60 min ([2]; over 60 min): linear increase; uptake kinetic in thyroid and hNIS-expressing tumor ([2]; rapid uptake over first 10 min, slower until 30 min): bi-phasic kinetic; radioactivity in the form of ^18F-TFB in urine [3]: > 97%; % Intact ^18F-TFB, Plasma ([4]; females, 40 min): 97 ± 3^c %; Plasma (SUV) ([4]; females, 40 min): 3.8 ± 1.0 SUV; Whole blood (SUV) ([4]; females, 40 min): 3.1 ± 0.9 SUV; Urine (% Dose) ([4]; females, 40 min column (urine collected ~10 min later)): 16 ± 3 % Dose; % Intact ^18F-TFB, Urine ([4]; females, 40 min column (urine ~10 min later)): 98 ± 1%; Plasma (SUV) ([4]; females, 145 min): 2.1 ± 0.5 SUV; Whole blood (SUV) ([4]; females, 145 min): 1.7 ± 0.4 SUV; Urine (% Dose) ([4]; females, 145 min column (urine collected ~10 min later)): 18 ± 3^ % Dose; % Intact ^18F-TFB, Urine ([4]; females, 145 min column (urine ~10 min later)): 98 ± 1%; Plasma (SUV) ([4]; females, 235 min): 1.7 ± 0.5 SUV; Whole blood (SUV) ([4]; females, 235 min): 1.4 ± 0.4 SUV; Urine (% Dose) ([4]; females, 235 min column (urine collected ~10 min later)): 12 ± 2 % Dose; % Intact ^18F-TFB, Urine ([4]; females, 235 min column (urine ~10 min later)): 97 ± 2%; Urine (% Dose), Accumulative ([4]; females): 47±7 % Dose; % Intact ^18F-TFB, Plasma ([4]; males, 40 min): 97 ± 2%; Plasma (SUV) ([4]; males, 40 min): 3.8 ± 0.2 SUV; Whole blood (SUV) ([4]; males, 40 min): 3.0 ± 0.2 SUV; Urine (% Dose) ([4]; males, 40 min column (urine collected ~10 min later)): 15 ± 2^b % Dose; % Intact ^18F-TFB, Urine ([4]; males, 40 min column (urine ~10 min later)): 96 ± 2%; Plasma (SUV) ([4]; males, 145 min): 2.8 ± 0.3 SUV; Whole blood (SUV) ([4]; males, 145 min): 2.1 ± 0.2 SUV; Urine (% Dose) ([4]; males, 145 min column (urine collected ~10 min later)): 13 ± 3 % Dose; % Intact ^18F-TFB, Urine ([4]; males, 145 min column (urine ~10 min later)): 97 ± 2%; Plasma (SUV) ([4]; males, 235 min): 2.0 ± 0.1 SUV; Whole blood (SUV) ([4]; males, 235 min): 1.7 ± 0.2 SUV; Urine (% Dose) ([4]; males, 235 min column (urine collected ~10 min later)): 10 ± 2^b % Dose; % Intact ^18F-TFB, Urine ([4]; males, 235 min column (urine ~10 min later)): 98 ± 1%; Urine (% Dose), Accumulative ([4]; males): 40±4 % Dose and 40 ± 4^b % Dose; ^18F-labeled metabolites in blood and urine (HPLC) ([4]; over the length of the study (4 h)): insignificant; radioactivity as metabolically intact ^18F-TFB in plasma ([4]; plasma samples at 40 min p.i.): > 97%
